Results on one compound are retold here after ChEMBL document CHEMBL4823263, “Discovery of 2-(3-(3-Carbamoylpiperidin-1-yl)phenoxy)acetic Acid Derivatives as Novel Small-Molecule Inhibitors of the β-Catenin/B-Cell Lymphoma 9 Protein-Protein Interaction” (J Med Chem, 2021).

The source made the active and inactive calls. The calls are words filed in the database; no cut-off is given here.

Assay [1] has as its system SW480. The assay can be described thus: Inhibition of Wnt signalling in human SW480 cells assessed as reduction in Axin2 expression incubated for 24 hrs by Western blot analysis. Type of assay: cell-based. Background: Immunoblotting shows a protein as a band on a membrane.
For assay [2], the target named is Protein Wnt-3a (Homo sapiens) (UniProt P56704). Kind of assay: Inhibition of Wnt3a in human SW480 cells assessed as LEF1 level at 3.3 uM incubated for […] by quantitative real-time PCR analysis relative to control. Type of assay: cell-based. The arrangement: scale not given: the % may be the effect or the level left. A general note: In qPCR the cycle at which signal appears reflects the starting amount.

The subject of assay [3] is SW480. The assay can be described thus: Inhibition of Wnt/beta-catenin transactivation signalling in human SW480 cells harboring mutant tcf4 binding sites assessed as relative activity at 12.5 uM incubated for 24 hrs by FOPFlash luciferase assay relative to control. The assay is classed as cell-based. Also on record: scale not given: the % may be the effect or the level left.

For assay [4], the target named is beta-catenin-B-cell lymphoma 9 protein complex (Homo sapiens) (UniProt P35222+O00512). The assay can be described thus: Disruption of beta-catenin/N-terminal biotinylated human BCL9 HD2 (350 to 375 residues) protein-protein interaction in human SW480 cells incubated for 1 hr followed by N-terminal biotinylated human BCL9 HD2 addition and measured after 2 hrs by pull-down assay. Type of assay: cell-based. The conditions noted are these: time 3.0 hrs.

Assay [5] deals with T1, Cadherin-1 (Homo sapiens) (UniProt P12830).
T1 sequence (whole entry): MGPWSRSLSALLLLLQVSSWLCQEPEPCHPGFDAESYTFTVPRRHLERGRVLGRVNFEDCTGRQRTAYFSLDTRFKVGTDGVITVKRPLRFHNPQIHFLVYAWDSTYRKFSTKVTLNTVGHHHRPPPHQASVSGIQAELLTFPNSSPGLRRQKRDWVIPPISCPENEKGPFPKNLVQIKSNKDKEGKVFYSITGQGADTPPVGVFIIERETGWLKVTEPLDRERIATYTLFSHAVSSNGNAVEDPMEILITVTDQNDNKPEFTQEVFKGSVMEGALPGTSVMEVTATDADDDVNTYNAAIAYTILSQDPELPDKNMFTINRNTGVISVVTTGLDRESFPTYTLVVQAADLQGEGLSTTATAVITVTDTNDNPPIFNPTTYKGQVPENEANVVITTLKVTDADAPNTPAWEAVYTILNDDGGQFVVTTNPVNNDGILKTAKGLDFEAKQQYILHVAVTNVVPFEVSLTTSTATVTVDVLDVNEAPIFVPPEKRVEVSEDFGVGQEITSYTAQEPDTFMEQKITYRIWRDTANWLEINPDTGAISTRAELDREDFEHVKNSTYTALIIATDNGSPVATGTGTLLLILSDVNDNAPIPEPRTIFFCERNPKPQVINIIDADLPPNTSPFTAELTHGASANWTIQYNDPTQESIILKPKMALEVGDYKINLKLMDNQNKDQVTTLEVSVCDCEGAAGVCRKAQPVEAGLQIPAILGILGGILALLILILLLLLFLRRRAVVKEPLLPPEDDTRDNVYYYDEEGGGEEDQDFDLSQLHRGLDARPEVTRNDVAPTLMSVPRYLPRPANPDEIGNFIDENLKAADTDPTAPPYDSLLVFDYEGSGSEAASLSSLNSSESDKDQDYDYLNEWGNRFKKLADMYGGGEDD
Kind of assay: Disruption of full length beta-catenin/E-cadherin interaction in human HCT116 cells incubated for 24 hrs by co-immunoprecipitation assay. The conditions noted are these: HCT-116. The assay is classed as cell-based.

The subject of assay [6] is SW480. The assay can be described thus: Antiproliferative activity against human SW480 cells harboring empty pcDNA3.1 vector incubated for 72 hrs by MTS assay. The conditions noted are these: SW480, 72 h. The assay is classed as functional, cell-based. On the technique in general: Formazan colour is commonly taken as a measure of viable cells.
Assay [7] deals with Protein Wnt-3a (Mus musculus) (UniProt P27467). Kind of assay: Inhibition of mouse wnt3a expressed in human MDA-MB-231 cells assessed as cyclin D1 level at 30 uM incubated for […] by quantitative real-time PCR analysis relative to control. Also on record: scale not given: the % may be the effect or the level left. Type of assay: cell-based.
Assay [8] shares this target. The assay can be described thus: Inhibition of mouse wnt3a expressed in human MDA-MB-231 cells assessed as Axin2 level at 30 uM incubated for […] by quantitative real-time PCR analysis relative to control. Type of assay: cell-based. The arrangement: scale not given: the % may be the effect or the level left.
The target in assay [9] is Protein Wnt-3a (Homo sapiens) (UniProt P56704). Kind of assay: Inhibition of Wnt3a in human SW480 cells assessed as Axin2 level at 3.3 uM incubated for […] by quantitative real-time PCR analysis relative to control. Type of assay: cell-based. The arrangement: scale not given: the % may be the effect or the level left.
The target of assay [10] is Protein Wnt-3a (Mus musculus) (UniProt P27467). The assay can be described thus: Inhibition of mouse wnt3a expressed in human MDA-MB-231 cells assessed as Axin2 level at 10 uM incubated for […] by quantitative real-time PCR analysis relative to control. Type of assay: cell-based. Also on record: scale not given: the % may be the effect or the level left.
The subject of the next assay is MDA-MB-468. Kind of assay: Antiproliferative activity against human MDA-MB-468 cells incubated for 72 hrs by MTS assay. Type of assay: functional, cell-based. The conditions noted are these: MDA-MB-468, 72 h.
For assay [11], the system named is SW480. The assay can be described thus: Inhibition of Wnt/beta-catenin transactivation signalling in human SW480 cells harboring mutant tcf4 binding sites assessed as relative activity at 6.25 uM incubated for 24 hrs by FOPFlash luciferase assay relative to control. Also on record: scale not given: the % may be the effect or the level left. Type of assay: cell-based.

Assay [12] concerns the target Protein Wnt-3a (Homo sapiens) (UniProt P56704). The assay can be described thus: Inhibition of Wnt3a in human SW480 cells assessed as cyclin D1 level at 10 uM incubated for […] by quantitative real-time PCR analysis relative to control. The assay is classed as cell-based. Also on record: scale not given: the % may be the effect or the level left.
Assay [13] is described as follows: Selectivity ratio of IC50 for human SW480 cells harboring beta-catenin pcDNA3.1 vector to IC50 for human SW480 cells harboring empty pcDNA3.1 vector.

Chain of Protein Wnt-3a (Mus musculus) (P27467 whole entry): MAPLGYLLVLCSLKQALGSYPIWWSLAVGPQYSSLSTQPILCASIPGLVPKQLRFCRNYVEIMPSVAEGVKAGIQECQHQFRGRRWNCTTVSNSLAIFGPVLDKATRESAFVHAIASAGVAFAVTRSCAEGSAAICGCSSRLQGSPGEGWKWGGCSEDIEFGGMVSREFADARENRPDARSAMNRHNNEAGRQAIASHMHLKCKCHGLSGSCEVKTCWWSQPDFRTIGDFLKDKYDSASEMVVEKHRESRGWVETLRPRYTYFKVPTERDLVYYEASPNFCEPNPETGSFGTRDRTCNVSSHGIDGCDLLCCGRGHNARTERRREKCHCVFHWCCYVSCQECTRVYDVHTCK
Chain of Protein Wnt-3a (Homo sapiens) (P56704 whole entry): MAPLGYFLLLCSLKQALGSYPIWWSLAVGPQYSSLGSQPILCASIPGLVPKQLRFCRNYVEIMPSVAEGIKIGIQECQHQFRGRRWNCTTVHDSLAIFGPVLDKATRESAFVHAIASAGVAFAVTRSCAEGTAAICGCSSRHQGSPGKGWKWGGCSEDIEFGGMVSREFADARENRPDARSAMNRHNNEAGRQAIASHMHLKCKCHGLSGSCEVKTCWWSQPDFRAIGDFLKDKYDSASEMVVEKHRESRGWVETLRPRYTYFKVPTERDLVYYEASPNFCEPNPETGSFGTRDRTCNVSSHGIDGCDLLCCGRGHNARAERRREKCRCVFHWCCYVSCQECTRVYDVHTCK

For `CC(C)(Oc1cccc(N2CCC[C@H](C(=O)N(Cc3ccc(-c4cccs4)cc3)C3CC3)C2)c1)C(=O)NS(=O)(=O)c1ccc(C#N)cc1`, the Activity result is “Dose-Dependent Effect” in the assay with SW480 [1]; 80% in assay [2]; 102% with SW480 [3]; “Dose-Dependent Effect” in assay [4]; 66% in assay [7]; 50% in assay [8]. The Activity in assay [9] stood at 99%; in assay [10], 57%; with SW480 [11], 97%; in [12], 40%. For the same compound, the result in assay [5] was inactive. Further, the IC50 in the assay with SW480 [6] amounted to 19 µM; in the assay on MDA-MB-468, 17.8 µM. For the same compound, the “Ratio IC50” value in assay [13] was determined as 4.

For orientation: IC50 means the concentration at which inhibition is half-maximal.
